From ChEMBL document CHEMBL4431297 (Medchemcomm, 2016) come the findings set out here.

Holding throughout (type): protein-complex assay
In assay [1] the test system is DNA gyrase (Escherichia coli), P0AES6+P0AES4 [UNDEFINED MUTATION]. Briefly: (§1) Inhibition of Escherichia coli JMtacA/JMtacB DNA gyrase subunit A2B2 S83W mutant using relaxed pBR322 DNA as substrate incubated for 30 mins in presence of ATP by ethidium bromide staining based agarose gel electrophoresis.
Assay [2] deals with DNA gyrase (Escherichia coli, UniProt P0AES4+P0AES6). The experiment in a line: Inhibition of wild type Escherichia coli DNA gyrase subunit A2B2 using relaxed pBR322 DNA as substrate incubated for 30 mins in presence of ATP by ethidium bromide staining based agarose gel electrophoresis.
In assay [3] the test system is DNA gyrase (Escherichia coli), P0AES6+P0AES4 [UNDEFINED MUTATION]. The experiment in a line: Inhibition of Escherichia coli JMtacA/JMtacB DNA gyrase subunit A2B2 S83W mutant at 50 uM using relaxed pBR322 DNA as substrate incubated for 30 mins in presence of ATP by ethidium bromide staining based agarose gel electrophoresis.
Assay [4] has the same test system. The experiment in a line: Inhibition of Escherichia coli JMtacA/JMtacB DNA gyrase subunit A2B2 S83W mutant at 50 to 300 uM using relaxed pBR322 DNA as substrate incubated for 30 mins in presence of ATP by ethidium bromide staining based agarose gel electrophoresis.
In assay [5] the target is T1, DNA gyrase (Escherichia coli) (UniProt P0AES6+P0AES4). The experiment in a line: Inhibition of wild type Escherichia coli DNA gyrase subunit A2B2 using supercoiled pBR322 DNA as substrate assessed as stabilization of enzyme-DNA cleavage complex by measuring linear DNA bands at 50 to 100 uM incubated for 30 mins in presence of proteinase K/SDS and in absence of ATP by ethidium bromide staining based agarose gel electrophoresis.

For assay [6], the system named is DNA gyrase (Escherichia coli), P0AES6+P0AES4 [UNDEFINED MUTATION]. Briefly: Inhibition of Escherichia coli JMtacA/JMtacB DNA gyrase subunit A2B2 S83W mutant at 25 uM using relaxed pBR322 DNA as substrate incubated for 30 mins in presence of ATP by ethidium bromide staining based agarose gel electrophoresis.
Assay [7] deals with DNA gyrase (Escherichia coli, UniProt P0AES4+P0AES6, S83W). The assay is described as §1.
Assay [8] concerns the target T1, DNA gyrase (Escherichia coli). The experiment in a line: Inhibition of wild type Escherichia coli DNA gyrase subunit A2B2 using supercoiled pBR322 DNA as substrate assessed as stabilization of enzyme-DNA cleavage complex by measuring linear DNA bands at 10 to 100 uM incubated for 30 mins in presence of proteinase K/SDS and in absence of ATP by ethidium bromide staining based agarose gel electrophoresis.

For assay [9] the target is unchanged. Briefly: Inhibition of wild type Escherichia coli DNA gyrase subunit A2B2 using supercoiled pBR322 DNA as substrate assessed as stabilization of enzyme-DNA cleavage complex by measuring linear DNA bands at 1 uM incubated for 30 mins in presence of proteinase K/SDS and in absence of ATP by ethidium bromide staining based agarose gel electrophoresis.
For assay [10] the target is unchanged. The experiment in a line: Inhibition of wild type Escherichia coli DNA gyrase subunit A2B2 at 100 uM using relaxed pBR322 DNA as substrate incubated for 30 mins in presence of ATP by ethidium bromide staining based agarose gel electrophoresis.
Assay [11] has the same target. The experiment in a line: Inhibition of wild type Escherichia coli DNA gyrase subunit A2B2 using supercoiled pBR322 DNA as substrate assessed as stabilization of enzyme-DNA cleavage complex by measuring linear DNA bands at 100 uM incubated for 30 mins in presence of proteinase K/SDS and in absence of ATP by ethidium bromide staining based agarose gel electrophoresis.

In assay [12] the test system is DNA gyrase (Escherichia coli), P0AES6+P0AES4 [UNDEFINED MUTATION]. The experiment in a line: Inhibition of Escherichia coli JMtacA/JMtacB DNA gyrase subunit A2B2 S83W mutant at 100 uM using relaxed pBR322 DNA as substrate incubated for 30 mins in presence of ATP by ethidium bromide staining based agarose gel electrophoresis.

The structures appear in SMILES notation. Activity calls are given as the source filed them. The calls are words filed in the database; no cut-off is given here.

In the case of `CCOC(=O)c1cn(C2CC2)c2cc(N3CCNCC3)c(F)cc2c1=O` [CIPROFLOXACIN ETHYL ESTER], the inhibition entry in [1] was “Active”. Also, the IC50 (commonly the concentration that inhibits the measured activity by half) at DNA gyrase [2] came out at 10 µM.

Take `CC(=O)Nc1cc2ccccc2oc1=O`: the inhibition entry in assay [3] was “inactive”.

On to `Nc1cc2ccccc2oc1=O`, for which, in assay [4], the inhibition entry was “inactive”.

`O=C(O)CCCCCCCCC(=O)N1CCN(c2cc3c(cc2F)c(=O)c(C(=O)O)cn3C2CC2)CC1`: the inhibition result in [5] is “Active”. Further, the inhibition entry in assay [6] was “inactive”.

As for `CC(=O)O[C@@H]1[C@@H](C)O[C@@H](c2ccc3c(c2O)[C@@H](O)[C@]24O[C@@]2(C3=O)[C@@]2(O)C(=O)C=C(C)C[C@@]2(O)C[C@@H]4O)C[C@H]1OC(=O)/C=C/C=C/C=C/C=C/C(=O)O`, the half-inhibitory concentration (IC50) at DNA gyrase [7] was 50 µM.

In the case of `COC(=O)/C=C/C=C/C=C/C=C/C(=O)Nc1c(O)c2ccc(O)c(Cl)c2oc1=O`, the IC50 on DNA gyrase [7] stood at 70 µM.

Regarding `O=C(CCCCCCCCC(=O)N1CCN(c2cc3c(cc2F)c(=O)c(C(=O)O)cn3C2CC2)CC1)Nc1cc2ccccc2oc1=O`, the inhibition result in assay [8] was “Active”. Moreover, on DNA gyrase [7], the IC50 stood at 3 µM.

As for `CC(=O)O[C@@H]1[C@@H](C)O[C@@H](c2ccc3c(c2O)[C@@H](O)[C@]24O[C@@]2(C3=O)[C@@]2(O)C(=O)C=C(C)C[C@@]2(O)C[C@@H]4O)C[C@H]1OC(=O)/C=C/C=C/C=C/C=C/C(=O)Nc1c(O)c2ccc(O)c(Cl)c2oc1=O`, in assay [9], the inhibition entry is “inactive”.

As to `CCOC(=O)c1cn(C2CC2)c2cc(N3CCN(C(=O)CCCCCCCCC(=O)Nc4cc5ccccc5oc4=O)CC3)c(F)cc2c1=O`, the inhibition entry in assay [1] and in assay [10] was “inactive” in each case.

Turning to `CCOC(=O)c1cn(C2CC2)c2cc(N3CCN(C(=O)CCCCCCCCC(=O)Nc4ccccc4)CC3)c(F)cc2c1=O`, the inhibition entry in assay [1] and in assay [10] was “inactive” throughout.

With `O=C(CCCCCCCCC(=O)N1CCN(c2cc3c(cc2F)c(=O)c(C(=O)O)cn3C2CC2)CC1)Nc1ccccc1`, the inhibition result in assay [11] is “Active”. In addition, in assay [12], the inhibition entry is “inactive”.

Take `CCOC(=O)c1cn(C2CC2)c2cc(N3CCN(C(=O)CCCCCCCCC(=O)OC)CC3)c(F)cc2c1=O`: the inhibition entry in assay [1] and in assay [10] was “inactive” each time.
